{
  "source": "patent US20050063999A1",
  "about": "“Use of at least one (dihydro)jasmonic acid derivative as a desquamating agent” (priority 2003, published 2005)",
  "tested_on": "stratum corneum",
  "experiment": "Desquamating power: count of corneocytes released from isolated stratum corneum discs after incubation with the test compound",
  "format": "cell-based",
  "details": "1 % by weight compound in PBS buffer + 0.1% Triton X100, pH 7.4, 37° C., 24 hours, with stirring",
  "description": "The desquamating power of the compound prepared in Example 1 above was studied. This test comprised counting the corneocytes released after incubating batches of stratum corneum, isolated by trypsin/heat from plastic surgery operations, in the presence of the test compound.\nDiscs of stratum corneum 4 mm in diameter were cut out with a punch and placed at the bottom of a 96-well plate. Two different stratum corneum samples were used.\nA solution was prepared comprising 1 % by weight of compound of Example 1 in a PBS buffer supplemented at 0.1% with Triton X100. The pH of the solution was readjusted to 7.4.\n50 microliters of test solution or of control solution (PBS buffer supplemented at 0.1% with Triton X100) were added to each well. The experiment was repeated three times. The mixture was incubated at 37° C., with stirring, for 24 hours.\n10 microliters of solution were then collected and placed in a Mallassez cell. The corneocytes released were counted under a microscope.\nThe following results were obtained, which express the mean, for the three trials, of the number of corneocytes released per microliter. The corneocyte fragments were not counted.",
  "data": [
    {"smiles": "CCCCCC1C(CC(=O)O)CCC1OC", "note": "(racemic) [Compound of Example 1]", "values": [
      {"measurement": "number of corneocytes released per microliter, mean (3 trials per sample), Sample No. 1", "setting": "stratum corneum Sample No. 1, control 6 ± 1", "result": "17 ± 6", "unit": "per microliter"},
      {"measurement": "number of corneocytes released per microliter, mean (3 trials per sample), Sample No. 2", "setting": "stratum corneum Sample No. 2, control 6 ± 2", "result": "16 ± 6", "unit": "per microliter"}
    ]}
  ]
}
